{
  "source": "patent US20140343000A1",
  "about": "(priority 2011, published 2014)",
  "data": [
    {"system": "recombinant NL4-3 virus (Renilla luciferase in nef, Gag P373S; NLRluc) in MT-2 cells", "test": "whole plant or invertebrate", "format": "cell-based, HIV", "details": "Renilla, NL43, luciferase activity in cells infected for 4-5 days with NLRluc recombinants, serial dilutions of inhibitor; class symbols (key in Table 1); read-out: EC50", "summary_of_the_method": "(§1)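 Virus from 293T transfection, titered in MT-2 by luciferase. MT-2 (RPMI, 10% HI-FBS) infected ± inhibitor serial dilutions, 4-5 d. Readout: Dual Luciferase premix (lysis:reagent:Stop & Glo 2:1:1), immediate luminescence.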", "units": {"EC50": "nM"}, "values": [
      {"molecule": "C=C(C)[C@@H]1CC[C@]2(NCCN3CCN(S(=O)(=O)CCCC)CC3)CC[C@]3(C)[C@H](CC[C@@H]4[C@@]5(C)CC=C(c6ccc(C(=O)O)cc6)C(C)(C)[C@@H]5CC[C@]43C)[C@@H]12", "note": "[Example B39, 4-((1R,3aS,5aR,5bR,7aR,11aS,11bR,13aR,13bR)-3a-((2-(4-(butylsulfonyl)piperazin-1-yl)ethyl)amino)-5a,5b,8,8,11a-pentamethyl-1-(prop-1-en-2-yl)-2,3,3a,4,5,5a,5b,6,7,7a,8,11,11a,11b,12,13,13a,13b-octadecahydro-1H-cyclopenta[a]chrysen-9-yl)benzoic acid]", "EC50": "< 100"},
      {"molecule": "C=C(C)[C@@H]1CC[C@]2(NCCN3CCN(S(=O)(=O)c4ccc(CC)cc4)CC3)CC[C@]3(C)[C@H](CC[C@@H]4[C@@]5(C)CC=C(c6ccc(C(=O)O)cc6)C(C)(C)[C@@H]5CC[C@]43C)[C@@H]12", "note": "[Example B40, 4-((1R,3aS,5aR,5bR,7aR,11aS,11bR,13aR,13bR)-3a-((2-(4-((4-ethylphenyl)sulfonyl)piperazin-1-yl)ethyl)amino)-5a,5b,8,8,11a-pentamethyl-1-(prop-1-en-2-yl)-2,3,3a,4,5,5a,5b,6,7,7a,8,11,11a,11b,12,13,13a,13b-octadecahydro-1H-cyclopenta[a]chrysen-9-yl)benzoic acid]", "EC50": "< 100"},
      {"molecule": "C=C(C)[C@@H]1CC[C@]2(NCCN3CCN(S(=O)(=O)Cc4ccccc4)CC3)CC[C@]3(C)[C@H](CC[C@@H]4[C@@]5(C)CC=C(c6ccc(C(=O)O)cc6)C(C)(C)[C@@H]5CC[C@]43C)[C@@H]12", "note": "[Example B41, 4-((1R,3aS,5aR,5bR,7aR,11aS,11bR,13aR,13bR)-3a-((2-(4-(benzylsulfonyl)piperazin-1-yl)ethyl)amino)-5a,5b,8,8,11a-pentamethyl-1-(prop-1-en-2-yl)-2,3,3a,4,5,5a,5b,6,7,7a,8,11,11a,11b,12,13,13a,13b-octadecahydro-1H-cyclopenta[a]chrysen-9-yl)benzoic acid]", "EC50": "< 100"},
      {"molecule": "C=C(C)[C@@H]1CC[C@]2(NCCN3CCN(S(=O)(=O)CS(C)(=O)=O)CC3)CC[C@]3(C)[C@H](CC[C@@H]4[C@@]5(C)CC=C(c6ccc(C(=O)O)cc6)C(C)(C)[C@@H]5CC[C@]43C)[C@@H]12", "note": "[Example B42, 4-((1R,3aS,5aR,5bR,7aR,11aS,11bR,13aR,13bR)-5a,5b,8,8,11a-pentamethyl-3a-((2-(4-(((methylsulfonyl)methyl)sulfonyl)piperazin-1-yl)ethyl)amino)-1-(prop-1-en-2-yl)-2,3,3a,4,5,5a,5b,6,7,7a,8,11,11a,11b,12,13,13a,13b-octadecahydro-1H-cyclopenta[a]chrysen-9-yl)benzoic acid]", "EC50": "< 100"},
      {"molecule": "C=C(C)[C@@H]1CC[C@]2(NCCN3CCN(S(=O)(=O)c4cn(C)cn4)CC3)CC[C@]3(C)[C@H](CC[C@@H]4[C@@]5(C)CC=C(c6ccc(C(=O)O)cc6)C(C)(C)[C@@H]5CC[C@]43C)[C@@H]12", "note": "[Example B43, 4-((1R,3aS,5aR,5bR,7aR,11aS,11bR,13aR,13bR)-5a,5b,8,8,11a-pentamethyl-3a-((2-(4-((1-methyl-1H-imidazol-4-yl)sulfonyl)piperazin-1-yl)ethyl)amino)-1-(prop-1-en-2-yl)-2,3,3a,4,5,5a,5b,6,7,7a,8,11,11a,11b,12,13,13a,13b-octadecahydro-1H-cyclopenta[a]chrysen-9-yl)benzoic acid]", "EC50": "< 100"},
      {"molecule": "C=C(C)[C@@H]1CC[C@]2(NCCN3CCN(S(=O)(=O)c4ccccc4)CC3)CC[C@]3(C)[C@H](CC[C@@H]4[C@@]5(C)CC=C(c6ccc(C(=O)O)cc6)C(C)(C)[C@@H]5CC[C@]43C)[C@@H]12", "note": "[Example B44, 4-((1R,3aS,5aR,5bR,7aR,11aS,11bR,13aR,13bR)-5a,5b,8,8,11a-pentamethyl-3a-((2-(4-(phenylsulfonyl)piperazin-1-yl)ethyl)amino)-1-(prop-1-en-2-yl)-2,3,3a,4,5,5a,5b,6,7,7a,8,11,11a,11b,12,13,13a,13b-octadecahydro-1H-cyclopenta[a]chrysen-9-yl)benzoic acid]", "EC50": "< 100"},
      {"molecule": "C=C(C)[C@@H]1CC[C@]2(NCCN3CCN(S(=O)(=O)c4ccc(Cl)cc4)CC3)CC[C@]3(C)[C@H](CC[C@@H]4[C@@]5(C)CC=C(c6ccc(C(=O)O)cc6)C(C)(C)[C@@H]5CC[C@]43C)[C@@H]12", "note": "[Example B46, 4-((1R,3aS,5aR,5bR,7aR,11aS,11bR,13aR,13bR)-3a-((2-(4-((4-chlorophenyl)sulfonyl)piperazin-1-yl)ethyl)amino)-5a,5b,8,8,11a-pentamethyl-1-(prop-1-en-2-yl)-2,3,3a,4,5,5a,5b,6,7,7a,8,11,11a,11b,12,13,13a,13b-octadecahydro-1H-cyclopenta[a]chrysen-9-yl)benzoic acid]", "EC50": "< 100"},
      {"molecule": "C=C(C)[C@@H]1CC[C@]2(NCCN3CCN(S(=O)(=O)c4ccc(OC)cc4)CC3)CC[C@]3(C)[C@H](CC[C@@H]4[C@@]5(C)CC=C(c6ccc(C(=O)O)cc6)C(C)(C)[C@@H]5CC[C@]43C)[C@@H]12", "note": "[Example B47, 4-((1R,3aS,5aR,5bR,7aR,11aS,11bR,13aR,13bR)-3a-((2-(4-((4-methoxyphenyl)sulfonyl)piperazin-1-yl)ethyl)amino)-5a,5b,8,8,11a-pentamethyl-1-(prop-1-en-2-yl)-2,3,3a,4,5,5a,5b,6,7,7a,8,11,11a,11b,12,13,13a,13b-octadecahydro-1H-cyclopenta[a]chrysen-9-yl)benzoic acid]", "EC50": "< 100"},
      {"molecule": "C=C(C)[C@@H]1CC[C@]2(NCCN3CCN(S(=O)(=O)c4ccc(C)cc4)CC3)CC[C@]3(C)[C@H](CC[C@@H]4[C@@]5(C)CC=C(c6ccc(C(=O)O)cc6)C(C)(C)[C@@H]5CC[C@]43C)[C@@H]12", "note": "[Example B48, 4-((1R,3aS,5aR,5bR,7aR,11aS,11bR,13aR,13bR)-5a,5b,8,8,11a-pentamethyl-1-(prop-1-en-2-yl)-3a-((2-(4-tosylpiperazin-1-yl)ethyl)amino)-2,3,3a,4,5,5a,5b,6,7,7a,8,11,11a,11b,12,13,13a,13b-octadecahydro-1H-cyclopenta[a]chrysen-9-yl)benzoic acid]", "EC50": "< 100"},
      {"molecule": "C=C(C)[C@@H]1CC[C@]2(NCCN3CCN(S(=O)(=O)c4cccc5ccccc45)CC3)CC[C@]3(C)[C@H](CC[C@@H]4[C@@]5(C)CC=C(c6ccc(C(=O)O)cc6)C(C)(C)[C@@H]5CC[C@]43C)[C@@H]12", "note": "[Example B49, 4-((1R,3aS,5aR,5bR,7aR,11aS,11bR,13aR,13bR)-5a,5b,8,8,11a-pentamethyl-3a-((2-(4-(naphthalen-1-ylsulfonyl)piperazin-1-yl)ethyl)amino)-1-(prop-1-en-2-yl)-2,3,3a,4,5,5a,5b,6,7,7a,8,11,11a,11b,12,13,13a,13b-octadecahydro-1H-cyclopenta[a]chrysen-9-yl)benzoic acid]", "EC50": "< 100"},
      {"molecule": "C=C(C)[C@@H]1CC[C@]2(NCCN3CCN(S(=O)(=O)c4ccc(F)cc4)CC3)CC[C@]3(C)[C@H](CC[C@@H]4[C@@]5(C)CC=C(c6ccc(C(=O)O)cc6)C(C)(C)[C@@H]5CC[C@]43C)[C@@H]12", "note": "[Example B50, 4-((1R,3aS,5aR,5bR,7aR,11aS,11bR,13aR,13bR)-3a-((2-(4-((4-fluorophenyl)sulfonyl)piperazin-1-yl)ethyl)amino)-5a,5b,8,8,11a-pentamethyl-1-(prop-1-en-2-yl)-2,3,3a,4,5,5a,5b,6,7,7a,8,11,11a,11b,12,13,13a,13b-octadecahydro-1H-cyclopenta[a]chrysen-9-yl)benzoic acid]", "EC50": "< 100"},
      {"molecule": "C=C(C)[C@@H]1CC[C@]2(NCCN3CCN(S(=O)(=O)c4ccc(C(=O)O)cc4)CC3)CC[C@]3(C)[C@H](CC[C@@H]4[C@@]5(C)CC=C(c6ccc(C(=O)O)cc6)C(C)(C)[C@@H]5CC[C@]43C)[C@@H]12", "note": "[Example B51, 4-((4-(2-(((1R,3aS,5aR,5bR,7aR,11aS,11bR,13aR,13bR)-9-(4-carboxyphenyl)-5a,5b,8,8,11a-pentamethyl-1-(prop-1-en-2-yl)-2,3,3a,4,5,5a,5b,6,7,7a,8,11,11a,11b,12,13,13a,13b-octadecahydro-1H-cyclopenta[a]chrysen-3a-yl)amino)ethyl)piperazin-1-yl)sulfonyl)benzoic acid]", "EC50": "< 100"},
      {"molecule": "C=C(C)[C@@H]1CC[C@]2(NCCN3CCN(S(=O)(=O)c4ccc5c(c4)OCCO5)CC3)CC[C@]3(C)[C@H](CC[C@@H]4[C@@]5(C)CC=C(c6ccc(C(=O)O)cc6)C(C)(C)[C@@H]5CC[C@]43C)[C@@H]12", "note": "[Example B52, 4-((1R,3aS,5aR,5bR,7aR,11aS,11bR,13aR,13bR)-3a-((2-(4-((2,3-dihydrobenzo[b][1,4]dioxin-6-yl)sulfonyl)piperazin-1-yl)ethyl)amino)-5a,5b,8,8,11a-pentamethyl-1-(prop-1-en-2-yl)-2,3,3a,4,5,5a,5b,6,7,7a,8,11,11a,11b,12,13,13a,13b-octadecahydro-1H-cyclopenta[a]chrysen-9-yl)benzoic acid]", "EC50": "< 100"}
    ]},
    {"system": "recombinant NL4-3 virus (Renilla luciferase in nef, Gag P373S; NLRluc) in MT-2 cells", "test": "whole plant or invertebrate", "format": "cell-based, HIV", "details": "Renilla, NL43, luciferase activity in cells infected for 4-5 days with NLRluc recombinants, serial dilutions of inhibitor; numeric values; read-out: EC50", "summary_of_the_method": "as §1", "units": {"EC50": "nM"}, "values": [
      {"molecule": "C=C(C)[C@@H]1CC[C@]2(NCCN3CCN(S(=O)(=O)c4cccc(OC)c4)CC3)CC[C@]3(C)[C@H](CC[C@@H]4[C@@]5(C)CC=C(c6ccc(C(=O)O)cc6)C(C)(C)[C@@H]5CC[C@]43C)[C@@H]12", "note": "[Example B45, 4-((1R,3aS,5aR,5bR,7aR,11aS,11bR,13aR,13bR)-3a-((2-(4-((3-methoxyphenyl)sulfonyl)piperazin-1-yl)ethyl)amino)-5a,5b,8,8,11a-pentamethyl-1-(prop-1-en-2-yl)-2,3,3a,4,5,5a,5b,6,7,7a,8,11,11a,11b,12,13,13a,13b-octadecahydro-1H-cyclopenta[a]chrysen-9-yl)benzoic acid]", "EC50": 4}
    ]}
  ]
}
